Data reported in patent publication US8168800B2, “Aβ-binding small molecules” (The Regents of the University of California, priority 2007, dated 2012).

How the values were obtained:
[1] = test system: MC65 cells; experiment: MC65 cell protection (cell viability) assay; conditions: for EC50: MC65;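 on all read-outs here: intraneuronal AβO toxicity triggered by withdrawing tetracycline, which suppresses the C99 transgene, MTT formazan viability read-out, with tetracycline-maintained cultures taken as 100%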
Description: In the MC65 cell protection assay, cytotoxicity associated with intraneuronal AβO was induced by removal of the C99 transgene suppressor, tetracycline (TC).

[2] = target: T1, AβO (Homo sapiens, UniProt P05067); experiment: Electron microscopy (EM) of AβO size; format: biochemical; conditions: 24 hour incubation at 25° C.
T1 construct: prepared by mixing a 1:10 ratio of biotinylated and unbiotinylated Aβ1-42 peptide
Description: To address the possible alternative explanation that the depolymerization effect observed for Compound A in the AFM experiment is due to Compound A altered binding of AβO to the AFM mica, the effect of Compound A and Compound B and Congo Red on AβO size was further analyzed by electron microscopy (EM) (see FIG. 5A and FIG. 5B). […] The representative electron micrographs presented in FIG. 5A show the size of the AβO aggregates after incubation with either Compound A, Compound B or Congo Red. FIG. 5B contains a histogram, which illustrates the size distribution of AβO without treatment or with treatment with Compound A, Compound B or Congo Red. It is apparent from EM images in FIG. 5A and in the histograms shown in FIG. 5B that after 24 hour incubation at 25° C. and in the absence of treatment with Compound A or Congo Red, AβO grew in size.

[3] = test system: binding of AβO to synapses of cultured mouse hippocampal neurons; experiment: Synaptic binding assay; format: cell-based; conditions: 100 nM AβO: 1 μM compound, neurons 21 days in vitro
Description: The strong binding of AβO to synapses induces aberration in synapse composition, shape, and density, and was proposed as the molecular basis for the loss of connectivity in AD (see, Lacor, et al., J. Neurosci. (2007) 27:796-807). A synaptic binding assay was performed as described by Lacor et al. (2007), which is incorporated herein by reference, with minor modifications to test the effectiveness of a compound of Formula I (e.g., Compound A) to reduce or to prevent the binding of AβO to synapses. AβO prepared from the N-terminal biotinylated Aβ1-42 peptide was incubated either with 10 equivalents compounds (i.e., 100 nM AβO: 1 μM Compound A), or with DMSO (i.e., the solvent for the compounds used only as a negative control) for five minutes, then added to cultured mouse hippocampal neurons that had been cultured 21 days in vitro. After 5 minute incubation, the neurons were washed, fixed, and stained with streptavidin-Alexa594 for bound AβO. […] The density of puncta per unit dendritic area was quantified using the Image J program and the resulting bar graph is presented in the far right panel.

[4] = test system: AβO cytotoxicity; experiment: Rapid MTT formazan exocytosis (MTT-FE) assay; format: cell-based; conditions: AβO:Compound 1:0 to 1:4, 1 hour, TS-/TI-MTT
Description: In the rapid MTT formazan exocytosis (MTT-FE) assay, AβO was combined with LRL 03, LRL 15, Compound A or Congo Red (2.5 μM solution) at a ratio of 1:0, 1:1, 1:2 or 1:4 (AβO:Compound) and incubated for 1 hour, followed by measurement of the degree of formazan exocytosis. […] In particular, cellular MTT formazan was fractionated into the Triton soluble (TS) and insoluble (TI) MTT and quantified and shown in FIG. 7B.

[5] = test system: SDS-stable AβO in MC65 cells; experiment: SDS-PAGE and Western blot (6E10) of MC65 cell homogenates; format: cell-based; conditions: 1 μM, 24 hour cultures, 6E10 Western blot
Excerpt: See, Maezawa et al. J Neurochem (2006) 98:57-67, which is incorporated herein by reference.

T1 sequence (P05067 672-713 limits assumed): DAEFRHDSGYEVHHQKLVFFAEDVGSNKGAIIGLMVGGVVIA

Row | SMILES | EC50 [1] [µM] | further results
1 | Cc1c(C(N)=O)c(=O)oc2cc3c(cc12)nc(Nc1ccccc1Br)n3CCOc1ccccc1 [Compound C, 2-(2-Bromo-phenylamino)-8-methyl-6-oxo-3-(2-phenoxy-ethyl)-3,6-dihydro-chromeno[6,7-d]imidazole-7-carboxylic acid amide] |  | protection of MC65 cells from death [1]: inactive
2 | Nc1c(/N=N/c2ccc(-c3ccc(/N=N/c4cc(S(=O)(=O)O)c5ccccc5c4N)cc3)cc2)cc(S(=O)(=O)O)c2ccccc12 [Congo Red] |  | effect on number and size of AβO [2]: reduction in the number and size of AβO; fluorescent puncta (AβO bound to synapses) [3]: substantially reduced number of puncta; neutralization of AβO cytotoxicity [4]: able to neutralize AβO cytotoxicity
3 | Cc1c(C(N)=O)c(=O)oc2cc3c(cc12)nc(Nc1cccc(Br)c1)n3CCOc1ccccc1 [D.1] | < 1 | 
4 | Cc1c(C(N)=O)c(=O)oc2cc3c(cc12)nc(Nc1ccc(I)cc1)n3CCOc1ccccc1 [D.2] | < 1 | 
5 | Cc1c(C(N)=O)c(=O)oc2cc3c(cc12)nc(Nc1ccccc1Br)n3CCOc1ccccc1 [D.3] | > 10 | 
6 | C#CCn1c(Nc2cccc(I)c2)nc2cc3c(C)c(C(N)=O)c(=O)oc3cc21 [D.4] | 1 to 10 | 
7 | Cc1c(C(N)=O)c(=O)oc2cc3c(cc12)nc(Nc1cccc(I)c1)n3CCO [D.5] | > 10 | 
8 | COCCn1c(Nc2cccc(I)c2)nc2cc3c(C)c(C(N)=O)c(=O)oc3cc21 [D.6] | > 10 | 
9 | COc1ccc(CCn2c(Nc3cccc(I)c3)nc3cc4c(C)c(C(N)=O)c(=O)oc4cc32)cc1 [D.7] | < 1 | 
10 | Cc1c(C(N)=O)c(=O)oc2cc3c(cc12)nc(Nc1cccc(I)c1)n3CCc1ccc(Br)cc1 [D.8] | < 1 | 
11 | Cc1c(C(N)=O)c(=O)oc2cc3c(cc12)nc(Nc1cccc(I)c1)n3CCOc1ccccc1 [D.9] | < 1 | 
12 | COc1ccc(Nc2nc3cc4c(C)c(C(N)=O)c(=O)oc4cc3n2CCOc2ccccc2)cc1 [D.10] | < 1 | 
13 | Cc1c(C(N)=O)c(=O)oc2cc3c(cc12)nc(Nc1cccc(I)c1)n3C [D.11] | 1 to 10 | 
14 | CCCn1c(Nc2cccc(I)c2)nc2cc3c(C)c(C(N)=O)c(=O)oc3cc21 [D.12] | < 1 | 
15 | Cc1c(C(N)=O)c(=O)oc2cc3c(cc12)nc(Nc1cccc(I)c1)n3CC1CC1 [D.13] | < 1 | 
16 | Cc1c(C(N)=O)c(=O)oc2cc3c(cc12)nc(Nc1cccc(I)c1)n3CC(F)F [D.14] | 1 to 10 | 
17 | Cc1c(C(N)=O)c(=O)oc2cc3c(cc12)nc(Nc1cccc(I)c1)n3Cc1cccc(I)c1 [D.15] | < 1 | 
18 | COc1ccc(Nc2nc3cc4c(C)c(C(N)=O)c(=O)oc4cc3n2Cc2cccc(I)c2)cc1 [D.16] | < 1 | 
19 | COc1cccc(Nc2nc3cc4c(C)c(C(N)=O)c(=O)oc4cc3n2Cc2cccc(I)c2)c1 [D.17] | < 1 | 
20 | CSc1cccc(Nc2nc3cc4c(C)c(C(N)=O)c(=O)oc4cc3n2Cc2cccc(I)c2)c1 [D.18] | < 1 | 

Row | SMILES | EC50 [1] [µM] | further results
21 | COc1ccc(Nc2nc3cc4c(C)c(C(N)=O)c(=O)oc4cc3n2Cc2cccc(I)c2)c(OC)c1 [D.19] | < 1 | 
22 | COc1ccc(Nc2nc3cc4c(C)c(C(N)=O)c(=O)oc4cc3n2Cc2cccc(Br)c2)cc1 [D.20] | < 1 | 
23 | COc1ccc(Nc2nc3cc4c(C)c(C(N)=O)c(=O)oc4cc3n2Cc2cccc(F)c2)cc1 [D.21] | < 1 | 
24 | COc1ccc(Nc2nc3cc4c(C)c(C(N)=O)c(=O)oc4cc3n2Cc2cccc(Cl)c2)cc1 [D.22] | < 1 | 
25 | COc1ccc(Nc2nc3cc4c(C)c(C(N)=O)c(=O)oc4cc3n2Cc2ccc(Cl)cc2)cc1 [D.23] | < 1 | 
26 | COc1ccc(Nc2nc3cc4c(C)c(C(N)=O)c(=O)oc4cc3n2Cc2ccc(Br)cc2)cc1 [D.24] | < 1 | 
27 | COc1ccc(Nc2nc3cc4c(C)c(C(N)=O)c(=O)oc4cc3n2Cc2ccc(I)cc2)cc1 [D.25] | < 1 | 
28 | COc1ccc(Nc2nc3cc4c(C)c(C(N)=O)c(=O)oc4cc3n2CCc2ccc(Br)cc2)cc1 [D.26] | < 1 | 
29 | COc1ccc(Nc2nc3cc4c(C)c(C(N)=O)c(=O)oc4cc3n2CCc2cccc(Cl)c2)cc1 [D.27] | < 1 | 
30 | Cc1c(C(N)=O)c(=O)oc2cc3c(cc12)nc(Nc1ccc(OC(F)(F)F)cc1)n3Cc1cccc(Cl)c1 [D.28] | < 1 | 
31 | Cc1c(C(N)=O)c(=O)oc2cc3c(cc12)nc(Nc1ccc(OC(F)(F)F)cc1)n3Cc1cccc(Br)c1 [D.29] | < 1 | 
32 | Cc1c(C(N)=O)c(=O)oc2cc3c(cc12)nc(Nc1ccc(OC(F)(F)F)cc1)n3Cc1cccc(I)c1 [D.30] | < 1 | 
33 | Cc1c(C(N)=O)c(=O)oc2cc3c(cc12)nc(Nc1ccc(OC(F)(F)F)cc1)n3Cc1ccc(Cl)cc1 [D.31] | < 1 | 
34 | Cc1c(C(N)=O)c(=O)oc2cc3c(cc12)nc(Nc1ccc(OC(F)(F)F)cc1)n3Cc1ccc(Br)cc1 [D.32] | < 1 | 
35 | COc1ccc(Nc2nc3cc4c(C)c(C(N)=O)c(=O)oc4cc3n2-c2cccc(Br)c2)cc1 [D.33] | > 10 | 
36 | Cc1c(C(N)=O)c(=O)oc2cc3c(cc12)nc(Nc1ccc(C#N)cc1)n3Cc1ccc(Br)cc1 [D.34] | < 1 | 
37 | Cc1c(C(N)=O)c(=O)oc2cc3c(cc12)nc(Nc1ccc(C#N)cc1)n3Cc1ccc(I)cc1 [D.35] | < 1 | 
38 | NC(=O)[C@H](Cc1ccc(O)c(O)c1)NC(=O)c1ccc2c(c1)nc(Nc1cccc(Br)c1)n2CCOc1ccccc1 [LRL 13, (S)—N-(1-amino-3-(3,4-dihydroxyphenyl)-1-oxopropan-2-yl)-2-(3-bromophenylamino)-1-(2-phenoxyethyl)-1H-benzo[d]imidazole-5-carboxamide, reference compound] |  | levels of SDS-stable AβO [5]: decreased the levels of SDS-stable AβO; protection of MC65 cells from death [1]: protect MC65 cells from death
39 | NC(=O)c1ccc2c(c1)nc(Nc1ccc(I)cc1)n2CCOc1ccccc1 [LRL 19, 2-(4-iodophenylamino)-1-(2-phenoxyethyl)-1H-benzo[d]imidazole-5-carboxamide, reference compound] |  | levels of SDS-stable AβO [5]: decreased the levels of SDS-stable AβO; protection of MC65 cells from death [1]: protect MC65 cells from death
